Legend:
Li-pilo induced SE = experiment: Lithium-pilocarpine model of temporal lobe epilepsy (Example 1): mortality and spontaneous recurrent seizures; format: in vivo, rat
Description: The model induced in rats by pilocarpine associated with lithium (Li-Pilo) reproduces most of the clinical and neurophysiological features of human temporal lobe epilepsy (Turski et al., 1989, Synapse 3:154-171; Cavalheiro, 1995, Ital J Neurol Sci 16:33-37). In adult rats, the systemic administration of pilocarpine leads to status epilepticus (SE). The lethality rate reaches 30-50% during the first days. In the surviving animals, neuronal damage predominates within the hippocampal formation, the piriform and entorhinal cortices, thalamus, amygdaloid complex, neocortex and substantia nigra.
Male Wistar rats weighing 225-250 g, provided by Janvier Breeding Center (Le Genest-St-lste, France) were housed under controlled standard conditions (light/dark cycle, 7.00 a.m.-7.00 p.m. lights on), with food and water available ad libitum. All animal experimentation was performed in accordance with the rules of the European Communities Council Directive of Nov. 24, 1986 (86/609/EEC), and the French Department of Agriculture (License No 67-97). For electrode implantation, rats were anesthetized by an i.p. injection of 2.5 mg/kg diazepam (DZP, Valium, Roche, France) and […] ketamine chlorhydrate (Imalgene 1000, Rhone Merrieux, France). Four single-contact recording electrodes were placed on the skull, over the parietal cortex, two on each side.
All rats received lithium chloride (3 meq/kg, i.p., Sigma, St Louis, Mo., U.S.A.); about 20 h later, animals were placed into plexiglas boxes, in order to record baseline cortical EEG. Methylscopolamine bromide (1 mg/kg, s.c., Sigma) was administered to limit the peripheral effects of the convulsant. SE was induced by injecting pilocarpine hydrochloride (25 mg/kg, s.c., Sigma) 30 min after methyl-scopolamine. The bilateral EEG cortical activity was recorded during the whole duration of SE and behavioral changes were noted.
The effects of increasing doses of the test compound were studied on 3 groups of rats. The animals of the first group received 10 mg/kg of the test compound, i.p., 1 h after the onset of SE (pilo-test10) while the animals of groups 2 and 3 received 30 and 60 mg/kg of the test compound (pilo-test30 and pilo-test60), respectively.
Another group was injected with 2 mg/kg diazepam (DZP, i.m.) at 1 h after the onset of SE which are our standard treatment to improve animals survival after SE (pilo-DZP). The control group received saline instead of pilocarpine and the test compound (saline-saline). The pilo-test compound rats surviving SE were then injected about 10 h after the first test compound injection with a second i.p. injection of the same dose of the test compound and were maintained under a twice daily treatment with the test compound for 6 additional days. Pilo-DZP received a second injection of 1 mg/kg DZP on the day of SE at about 10 h after the first one. Thereafter, Pilo-DZP and saline-saline rats received twice daily an equivalent volume of saline.
The effects of the test compound on the EEG and on the latency to occurrence of SRS were investigated by daily video recording of the animals for 10 h per day and the recording of the electrographic activity twice a week for 8 h.
For the comparison of the characteristics of SE in pilo-saline and pilo-test compound animals, a non-paired Student's t-test was used. The comparison between the number of rats seizing in both groups was performed by means of a Chi square test. For neuronal damage, statistical analysis between groups was performed using ANOVA followed by a Fisher's test for multiple comparisons using the Statview software (Fisher R A, 1946a, Statistical Methods for Research Workers (10th edition) Oliver & Boyd, Edinburgh; Fisher R A, 1946b, The Design of Experiments (4th edition) Oliver & Boyd, Edinburgh) Behavioral and EEG characteristics of lithium-pitocarpine status epilepticus

Li-Pilo SE = experiment: Lithium-pilocarpine model (Example 2): quantification of cell densities; format: in vivo, rat; conditions: for number of neuronal cell bodies, Dorsal entorhinal, layer II / number of neuronal cell bodies, Dorsal entorhinal, layer III / number of neuronal cell bodies, Piriform, layer II, dorsal / number of neuronal cell bodies, Piriform, layer II, ventral / number of neuronal cell bodies, Piriform, layer III / number of neuronal cell bodies, Ventral entorhinal, layer II / number of neuronal cell bodies, Ventral entorhinal, layers III-IV / number of neuronal cell bodies, hippocampus CA1 area / number of neuronal cell bodies, hippocampus CA3 area / number of neuronal cell bodies, hippocampus Hilus / damage, hilus of dentate gyrus / cell loss, CA1 pyramidal layer: 14 days after SE; for number of neuronal cell bodies, Dorsal entorhinal, layer II / number of neuronal cell bodies, Dorsal entorhinal, layer III / number of neuronal cell bodies, Piriform, layer II, dorsal / number of neuronal cell bodies, Piriform, layer II, ventral / number of neuronal cell bodies, Piriform, layer III / number of neuronal cell bodies, Ventral entorhinal, layer II / number of neuronal cell bodies, Ventral entorhinal, layers III-IV / number of neuronal cell bodies, hippocampus CA1 area / number of neuronal cell bodies, hippocampus CA3 area / number of neuronal cell bodies, hippocampus Hilus: mean ± S.E.M.
Method: Quantification of cell densities was performed at two times after SE: a first group was studied 14 days after SE and was composed by 7 DZP, 8 RWJ30, 11 RWJ60, 10 RWJ90, 8 RWJ120 and 8 control rats not subjected to SE. A second group used for the study of the latency to SRS was sacrificed either 8 weeks after the first SRS or at 5 months when no SRS could be seen in that delay and was composed by 7 DZP, 2 RWJ30, 3 RWJ60, 3 RWJ90, 4 RWJ120 rats. Animals were deeply anesthetized with 1.8 g/kg pentobarbital (Dolethal®, Vétoquinol, Lure, France). Brains were then removed and frozen. Serial 20 μm slices were cut in a cryostat, air-dried during several days before thionine staining. Quantification of cell densities was performed with a 10×10 boxes 1 cm^2 microscopic grid on coronal sections according to the stereotaxic coordinates of the rat brain atlas (Paxinos and Watson, 1986, The Rat Brain in Stereotaxic coordinates, 2nd ed. Academic Press, San Diego). The grid of counting was placed on a well-defined area of the cerebral structure of interest and counting was carried out with a microscopic enlargement of 200- or 400-fold defined for each single cerebral structure. Cell counts were performed twice on each side of three adjacent sections for each region by a single observer unaware of the animal's treatment. The number of cells obtained in the 12 counted fields in each cerebral structure was averaged. This procedure was used to minimize the potential errors that could result from double counting leading to overestimation of cell numbers. […] Counts involved only neurons with cell bodies larger than 10 μm. Cells with small cell bodies were considered as glial cells and were not counted.
For neuronal damage, statistical analysis between groups was performed by means of a one-way analysis of variance followed by a post-hoc Scheffe's test using the Statview software.

## NC(=O)OC[C@@H](O)c1ccccc1Cl [test compound]
Li-pilo induced SE; 10 mg/kg i.p., 7-day treatment, n=7
  latency to SRS: 15.4 ± 5.1 days
Li-pilo induced SE; 10 mg/kg, weeks 3 and 4
  frequency of stage III SRS: significantly increased over pilo-DZP values
Li-pilo induced SE; 30 mg/kg i.p., 7-day treatment, n=10
  latency to SRS: 18.9 ± 9.0 days
Li-pilo induced SE; 60 mg/kg group with early SRS onset, weeks 2-4
  frequency of stage IV-V SRS: 0.6-0.9 seizure per week
Li-pilo induced SE; 60 mg/kg, one rat
  delay without becoming epileptic post-SE: > 9 months
Li-pilo induced SE; 60 mg/kg, subgroup of animals
  mean delay to epilepsy relative to the other groups of animals: about 9 fold
Li-pilo induced SE; 60 mg/kg, subgroup with latency similar to other groups, n=7
  latency to SRS: 17.6 ± 8.7 days
Li-pilo induced SE; 60 mg/kg, subgroup with much longer delay, n=4
  latency to SRS (mean): 149.8 ± 36.0 days
Li-pilo induced SE; 60 mg/kg, 4 out of 11
  rats with delayed occurrence of spontaneous seizures: 36%
Li-pilo induced SE; 10, 30 and 60 mg/kg (early SRS onset) groups, first week
  frequency of stage IV-V SRS: 2.3-6.1 SRS per week
Li-pilo induced SE; test compound 10 mg/kg i.p. 1 h after SE onset
  mortality during the first 48 h after SE: 26%
Li-pilo induced SE; test compound 30 mg/kg i.p. 1 h after SE onset
  mortality during the first 48 h after SE: 20%
Li-pilo induced SE; test compound 60 mg/kg i.p. 1 h after SE onset
  mortality during the first 48 h after SE: 4%
Li-Pilo SE; 60 mg/kg
  damage, piriform cortex ventral layer II: 56%
Li-Pilo SE; 120 mg/kg
  cell loss, piriform cortex layer III: 21%
  damage, piriform cortex ventral layer II: 9%
Li-Pilo SE; 120 mg/kg, difference with DZP not significant
  neuroprotection in CA3 pyramidal layer: tendency to a slight neuroprotection
Li-Pilo SE; 30 and 60 mg/kg
  neuroprotection in all layers of the dorsal entorhinal cortex: did not afford any neuroprotection
Li-Pilo SE; 60-120 mg/kg
  damage, piriform cortex dorsal layer II: 4-21%
Li-Pilo SE; 60 and 90 mg/kg (two lower of the 60-120 mg/kg doses)
  cell loss, piriform cortex layer III: 53-64%
Li-Pilo SE; 90 and 120 mg/kg
  cell losses, ventral entorhinal cortex layers III/IV: 18-21%
  damage remaining, entorhinal cortex dorsal layers II and III/IV and ventral layer II: 4-14%
Li-Pilo SE; RWJ30 = 30 mg/kg
  number of neuronal cell bodies, Dorsal entorhinal, layer II: 23.4 ± 0.8
  number of neuronal cell bodies, Dorsal entorhinal, layer III: 21.5 ± 1.3
  number of neuronal cell bodies, Piriform, layer II, dorsal: 15.7 ± 3.6
  number of neuronal cell bodies, Piriform, layer II, ventral: 7.2 ± 4.6
  number of neuronal cell bodies, Piriform, layer III: 1.8 ± 2.3
  number of neuronal cell bodies, Ventral entorhinal, layer II: 22.7 ± 1.2
  number of neuronal cell bodies, Ventral entorhinal, layers III-IV: 13.2 ± 2.5
  number of neuronal cell bodies, hippocampus CA1 area: 39.3 ± 5.0°°
  number of neuronal cell bodies, hippocampus CA3 area: 35.7 ± 1.4
  number of neuronal cell bodies, hippocampus Hilus: 33.0 ± 4.0
Li-Pilo SE; RWJ60 = 60 mg/kg
  number of neuronal cell bodies, Dorsal entorhinal, layer II: 24.1 ± 0.7
  number of neuronal cell bodies, Dorsal entorhinal, layer III: 24.0 ± 0.4
  number of neuronal cell bodies, Piriform, layer II, dorsal: 28.9 ± 2.7°°
  number of neuronal cell bodies, Piriform, layer II, ventral: 14.8 ± 5.9
  number of neuronal cell bodies, Piriform, layer III: 6.9 ± 2.9
  number of neuronal cell bodies, Ventral entorhinal, layer II: 23.1 ± 0.7
  number of neuronal cell bodies, Ventral entorhinal, layers III-IV: 17.8 ± 2.8
  number of neuronal cell bodies, hippocampus CA1 area: 31.9 ± 4.4
  number of neuronal cell bodies, hippocampus CA3 area: 31.6 ± 2.1
  number of neuronal cell bodies, hippocampus Hilus: 32.8 ± 5.4
Li-Pilo SE; RWJ90 = 90 mg/kg
  number of neuronal cell bodies, Dorsal entorhinal, layer II: 26.3 ± 0.9
  number of neuronal cell bodies, Dorsal entorhinal, layer III: 25.4 ± 1.3
  number of neuronal cell bodies, Piriform, layer II, dorsal: 32.4 ± 1.3°
  number of neuronal cell bodies, Piriform, layer II, ventral: 18.4 ± 5.1
  number of neuronal cell bodies, Piriform, layer III: 9.0 ± 4.1
  number of neuronal cell bodies, Ventral entorhinal, layer II: 26.7 ± 0.9°°
  number of neuronal cell bodies, Ventral entorhinal, layers III-IV: 23.7 ± 1.7°
  number of neuronal cell bodies, hippocampus CA1 area: 47.7 ± 5.4°
  number of neuronal cell bodies, hippocampus CA3 area: 35.1 ± 1.0
  number of neuronal cell bodies, hippocampus Hilus: 37.5 ± 5.2**°
Li-Pilo SE; RWJ120 = 120 mg/kg
  number of neuronal cell bodies, Dorsal entorhinal, layer II: 27.3 ± 0.5
  number of neuronal cell bodies, Dorsal entorhinal, layer III: 26.4 ± 0.9
  number of neuronal cell bodies, Piriform, layer II, dorsal: 35.2 ± 1.3°
  number of neuronal cell bodies, Piriform, layer II, ventral: 30.5 ± 1.5°
  number of neuronal cell bodies, Piriform, layer III: 15.0 ± 2.5°°
  number of neuronal cell bodies, Ventral entorhinal, layer II: 25.1 ± 0.7
  number of neuronal cell bodies, Ventral entorhinal, layers III-IV: 24.5 ± 1.6°
  number of neuronal cell bodies, hippocampus CA1 area: 65.5 ± 2.9°
  number of neuronal cell bodies, hippocampus CA3 area: 39.8 ± 1.5
  number of neuronal cell bodies, hippocampus Hilus: 44.8 ± 3.6
Li-Pilo SE; RWJ30, 60 and 90 groups
  damage, hilus of dentate gyrus: 62-66%
Li-Pilo SE; RWJ30, 60 or 90 rats
  cell loss, CA1 pyramidal layer: 36-57%
Li-Pilo SE; RWJ30 dose
  neuroprotection in piriform cortex: did not protect any layer
Li-Pilo SE; RWJ120
  cell loss, CA1 pyramidal layer: 13%
  damage, hilus of dentate gyrus: 54%
Li-Pilo SE; second dose of 'the 60 and 120 mg/kg RWJ dose' as printed
  damage, piriform cortex ventral layer II: 45%
